Test results taken from BindingDB's records for doi:10.3109/14756366.2012.670807 (Atatürk University, 2013).

Tests used:
[1] = target: Carbonic anhydrase 2 (Homo sapiens, UniProt P00918); test: Esterase Assay; settings: pH 7.4
Description: (§1) CA activity was assayed by following the change in absorbance at 348 nm of 4-nitrophenylacetate (NPA) to 4-nitrophenylate ion over a period of 3 min at 25°Cusing a spectrophotometer (CHEBIOS UV-VIS) according to the method described by Verpoorte et al. [Verpoorte et al., J. Biol. Chem., 242:4221-4229] The enzymatic reaction contained 1.4 mL 0.05 M Tris-SO4 buffer (pH 7.4), 1 mL 3 mM 4-NPA, 0.5 mL H2O and 0.1 mL enzyme solution (total volume, 3.0 mL). A reference measurement was obtained by preparing the mixture without the enzyme solution. All measurements were made in triplicate. The Ki values were determined from a series of experiments using three different bromophenols concentrations and 4-NPA as the substrate at five different concentrations to construct Lineweaver-Burk curves [Lineweaver et al., J. Am. Chem. Soc., 57:685-693].

[2] = target: Carbonic anhydrase 1 (Homo sapiens, UniProt P00915); test: Esterase Assay; settings: pH 7.4
Description: as §1

Chain of Carbonic anhydrase 1 (P00915 whole entry): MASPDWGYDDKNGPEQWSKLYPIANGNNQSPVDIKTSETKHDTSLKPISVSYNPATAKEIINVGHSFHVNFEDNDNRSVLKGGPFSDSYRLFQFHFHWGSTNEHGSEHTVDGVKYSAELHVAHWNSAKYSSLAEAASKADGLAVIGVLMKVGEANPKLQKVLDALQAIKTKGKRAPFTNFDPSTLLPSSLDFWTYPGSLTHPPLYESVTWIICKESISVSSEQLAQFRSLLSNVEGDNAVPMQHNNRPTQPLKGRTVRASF

Question: With `Oc1ccc(Cc2ccc(O)c(O)c2O)cc1O` [Carbonic anhydrase isoenzymes inhibitor, 15] as the molecule, how does the IC50 [1] read?
Answer: 79.4 µM

Question: What about the Ki [1] of the same molecule?
Answer: 42.5 µM

Question: What about the IC50 [2] of the same molecule?
Answer: 54.3 µM

Question: What about the Ki [2] of the same molecule?
Answer: 8.36 µM

Question: `O=C(c1ccc(O)c(O)c1)c1ccc(O)c(O)c1O` [Carbonic anhydrase isoenzymes inhibitor, 5] was tested. Which IC50 [1] did it give?
Answer: 142 µM

Question: And the Ki [1]?
Answer: 23 µM

Question: What about the IC50 [2] of the same molecule?
Answer: 27.8 µM

Question: And the Ki [2]?
Answer: 32.5 µM

Question: With `Oc1cc(Br)c(Cc2cc(Br)c(O)c(O)c2O)cc1O` [Carbonic anhydrase isoenzymes inhibitor, 16] as the molecule, how does the IC50 [1] read?
Answer: 63.6 µM

Question: And the IC50 [2]?
Answer: 4.28 µM

Question: And the Ki [2]?
Answer: 2.59 µM

Question: Which IC50 [1] does the source give for `O=C(c1cc(O)c(O)cc1Br)c1cc(Br)c(O)c(O)c1O` [Carbonic anhydrase isoenzymes inhibitor, 14] here?
Answer: 24.5 µM

Question: What about the Ki [1] of the same molecule?
Answer: 28.6 µM

Question: And the IC50 [2]?
Answer: 3.22 µM

Question: And the Ki [2]?
Answer: 1.19 µM

Question: With `O=C(c1ccc(O)c(O)c1)c1cc(Br)c(O)c(O)c1O` [Carbonic anhydrase isoenzymes inhibitor, 13] as the molecule, how does the IC50 [1] read?
Answer: 18.5 µM

Question: What about the Ki [1] of the same molecule?
Answer: 3.25 µM

Question: And the IC50 [2]?
Answer: 6.92 µM

Question: And the Ki [2]?
Answer: 6.77 µM
